According to ChEMBL document CHEMBL3259572, “Euodenine A: a small-molecule agonist of human TLR4” (J Med Chem, 2014):
pEC50: −log10 of the molar value. Blank lines part the entries; values can stand above or below the molecule they belong to. Calls of active or inactive are those of the source. No cut-off for these calls is given here.

What was measured:
Format in all cases: cell-based
[1] = target: T1, Toll-like receptor 4 (Homo sapiens, UniProt O00206); test: Agonist activity at human recombinant TLR4 expressed in HEK293 cells at 333 uM by SEAP reporter assay
[2] = target: T1, Toll-like receptor 4; test: Agonist activity at human recombinant TLR4 expressed in HEK293 cells by SEAP reporter assay
[3] = target: T1, Toll-like receptor 4; test: Intrinsic activity at human recombinant TLR4 expressed in HEK293 cells by SEAP reporter assay relative to LPS
[4] = target: T1, Toll-like receptor 4; test: Agonist activity at human recombinant TLR4 expressed in HEK293 cells at 30 uM by SEAP reporter assay
[5] = target: T1, Toll-like receptor 4; test: Agonist activity at human recombinant TLR4 expressed in HEK293 cells at 300 uM by SEAP reporter assay
[6] = Cytotoxicity against PHA-stimulated human PBMC assessed as reduction in cell viability at 50 uM by WST-1 cell proliferation assay
[7] = tested on: PBMC; test: Cytotoxicity against PHA-stimulated human PBMC assessed as reduction in cell viability at 20 uM by WST-1 cell proliferation assay
[8] = target: T1, Toll-like receptor 4; test: Agonist activity at human recombinant TLR4 expressed in HEK293 cells at 25 uM by SEAP reporter assay
[9] = target: T1, Toll-like receptor 4; test: Agonist activity at human recombinant TLR4 expressed in HEK293 cells at 60 uM by SEAP reporter assay
[10] = target: T1, Toll-like receptor 4; test: Agonist activity at human recombinant TLR4 expressed in HEK293 cells at 71.5 uM by SEAP reporter assay

T1 sequence (O00206 whole entry): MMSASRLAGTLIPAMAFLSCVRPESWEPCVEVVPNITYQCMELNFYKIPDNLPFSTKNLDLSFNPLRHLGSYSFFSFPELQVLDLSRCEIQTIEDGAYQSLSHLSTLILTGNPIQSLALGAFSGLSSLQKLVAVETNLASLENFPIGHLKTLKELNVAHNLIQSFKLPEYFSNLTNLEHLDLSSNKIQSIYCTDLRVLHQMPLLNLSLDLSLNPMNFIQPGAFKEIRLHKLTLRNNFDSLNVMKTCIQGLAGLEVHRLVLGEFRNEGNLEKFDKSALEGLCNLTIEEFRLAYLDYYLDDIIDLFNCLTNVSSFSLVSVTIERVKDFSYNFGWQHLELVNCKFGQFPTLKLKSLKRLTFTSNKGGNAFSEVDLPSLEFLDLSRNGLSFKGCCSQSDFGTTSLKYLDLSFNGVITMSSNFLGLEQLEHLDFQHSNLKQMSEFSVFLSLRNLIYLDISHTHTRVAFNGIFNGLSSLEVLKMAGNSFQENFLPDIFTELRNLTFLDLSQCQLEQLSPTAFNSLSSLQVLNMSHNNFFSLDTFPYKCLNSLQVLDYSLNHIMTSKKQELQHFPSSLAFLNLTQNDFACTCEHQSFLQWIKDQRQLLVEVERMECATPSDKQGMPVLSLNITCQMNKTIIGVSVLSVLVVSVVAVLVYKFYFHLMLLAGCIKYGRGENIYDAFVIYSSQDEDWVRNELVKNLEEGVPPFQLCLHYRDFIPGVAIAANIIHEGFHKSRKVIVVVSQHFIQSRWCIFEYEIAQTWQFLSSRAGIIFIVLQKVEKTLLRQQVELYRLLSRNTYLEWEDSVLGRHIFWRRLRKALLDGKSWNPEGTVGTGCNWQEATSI

Structure (SMILES): CCOC(=O)[C@@H]1[C@@H](c2ccc(Br)cc2)[C@H]2c3c(c4ccccc4[nH]c3=O)OC(C)(C)[C@@H]12
Activity [1]: inactive

Structure (SMILES): COc1cc([C@@H]2[C@@H](C)[C@@H]3C(C)Oc4c(c(=O)[nH]c5ccccc45)[C@H]23)cc(OC)c1OC (single isomer, unassigned)
pEC50 [2]: < 5.00

Structure (SMILES): COc1ccc([C@@H]2[C@@H](C)[C@H]3[C@@H]2c2c(c4ccccc4[nH]c2=O)OC3(C)C)cc1
pEC50 [2]: < 5.00

Structure (SMILES): COc1cc([C@@H]2C[C@H]3[C@@H]2c2c(c4ccccc4[nH]c2=O)OC3(C)C)cc(OC)c1OC
Activity [4]: inactive

Structure (SMILES): CCC[C@]1(c2ccc(OC)c(OC)c2)O[C@H]2c3c(c4ccccc4[nH]c3=O)OC(C)(C)[C@H]2O1
pEC50 [2]: 4.80
Intrinsic activity [3]: 0.2

Structure (SMILES): COc1ccc2[nH]c(=O)c3c(c2c1)OC(C)(C)[C@@H]1[C@H]3[C@H](c2ccc(OC)c(OC)c2)[C@H]1C(C)C
pEC50 [2]: < 5.00

Structure (SMILES): COc1cc(C2[C@@H](COC(C)C)C3[C@@H]2c2c(c4ccccc4[nH]c2=O)OC3(C)C)cc(OC)c1OC (single isomer, unassigned)
Activity [5]: inactive

Structure (SMILES): COc1cc([C@@H]2[C@@H](C)[C@H]3[C@@H]2c2c(c4ccccc4[nH]c2=O)OC3(C)C)ccc1O
pEC50 [2]: < 5.00

Structure (SMILES): COc1ccc([C@@H]2[C@@H](C(=O)C3CC3)[C@H]3[C@@H]2c2c(c4ccccc4[nH]c2=O)OC3(C)C)cc1OC
pEC50 [2]: 5.10
Intrinsic activity [3]: 0.62

Structure (SMILES): COC[C@@H]1[C@@H](c2ccc(OC)c(OC)c2)[C@H]2c3c(c4ccccc4n(C)c3=O)OC(C)(C)[C@@H]12
inhibition at 50 µM [6]: 30%
Activity [7]: Non-toxic

Structure (SMILES): COc1ccc([C@@H]2[C@@H](C)[C@H]3[C@@H]2c2c(c4ccccc4[nH]c2=O)OC3(C)C)c(OC)c1OC
pEC50 [2]: < 5.00

Structure (SMILES): COC(=O)[C@@H]1C(c2cc(OC)c(OC)c(OC)c2)[C@H]2c3c(c4ccccc4[nH]c3=O)OC(C)(C)C12 (single isomer, unassigned)
Activity [8]: inactive

Structure (SMILES): COc1ccc([C@@H]2[C@@H](C(C)=O)[C@H]3[C@@H]2c2c(c4ccccc4[nH]c2=O)OC3(C)C)cc1OC
pEC50 [2]: 5.00
Intrinsic activity [3]: 0.3

Structure (SMILES): CCC[C@]1(c2cc(OC)c(OC)c(OC)c2)O[C@H]2c3c(c4ccccc4[nH]c3=O)OC(C)(C)[C@H]2O1
Activity [9]: inactive

Structure (SMILES): COc1cc([C@@H]2[C@@H](C)[C@H]3[C@@H]2c2c(c4ccccc4[nH]c2=O)OC3(C)C)ccc1OCc1ccccc1
Activity [5]: inactive

Structure (SMILES): COc1cc([C@H]2[C@H]3c4c(c5cc(C)ccc5n(C)c4=O)OC(C)(C)[C@H]3[C@@H]2C(C)C)cc(OC)c1OC
pEC50 [2]: 5.10
Intrinsic activity [3]: 0.41

Structure (SMILES): C[C@@H]1[C@@H](c2ccccc2)[C@H]2c3c(c4ccccc4[nH]c3=O)OC(C)(C)[C@@H]12
Activity [10]: inactive

Structure (SMILES): COc1cc(C2[C@@H](COC(C)=O)C3[C@@H]2c2c(c4ccccc4[nH]c2=O)OC3(C)C)cc(OC)c1OC (single isomer, unassigned)
pEC50 [2]: 5.30
Intrinsic activity [3]: 0.1

Structure (SMILES): COc1ccc([C@H]2[C@H]3c4c(c5ccccc5[nH]c4=O)OC(C)(C)[C@H]3[C@@H]2C(C)C)cc1OC(=O)CCC(=O)O
pEC50 [2]: 5.20
Intrinsic activity [3]: 0.29

Structure (SMILES): COc1ccc([C@H]2[C@H]3c4c(c5ccccc5[nH]c4=O)OC(C)(C)[C@H]3[C@@H]2C(C)C)cc1OC(C)=O
pEC50 [2]: < 5.00

Structure (SMILES): COc1ccc2[nH]c(=O)c3c(c2c1)OC(C)(C)[C@H]1[C@H](C)[C@@H](c2cc(OC)c(OC)c(OC)c2)[C@@H]31
pEC50 [2]: < 5.00

Next, values leading:

pEC50 [2]: 5.60
Intrinsic activity [3]: 0.64
Structure (SMILES): COc1ccc([C@@H]2[C@@H](C)[C@H]3[C@@H]2c2c(c4ccccc4n(C)c2=O)OC3(C)C)cc1OC

pEC50 [2]: 5.41
Intrinsic activity [3]: 0.19
Structure (SMILES): COc1ccc([C@H]2[C@H]3c4c(c5ccccc5[nH]c4=O)OC(C)(C)[C@H]3[C@@H]2C2CC2)cc1OCCCN1CCOCC1

pEC50 [2]: 5.92
Intrinsic activity [3]: 1.01
Structure (SMILES): CCCC[C@@H]1[C@@H](c2ccc(OC)c(OC)c2)[C@H]2c3c(c4ccccc4[nH]c3=O)OC(C)(C)[C@@H]12

pEC50 [2]: 5.51
Intrinsic activity [3]: 0.3
Structure (SMILES): CC[C@@H]1[C@@H](c2cc(OC)c(OC)c(OC)c2)[C@H]2c3c(c4cc(C)ccc4n(C)c3=O)OC(C)(C)[C@@H]12

pEC50 [2]: 5.51
Intrinsic activity [3]: 0.36
Structure (SMILES): CC[C@@H]1[C@@H](c2ccc(OC)c(F)c2)[C@H]2c3c(c4ccccc4n(C)c3=O)OC(C)(C)[C@@H]12

pEC50 [2]: 5.51
Intrinsic activity [3]: 0.69
Structure (SMILES): COc1ccc([C@@H]2[C@@H](C)[C@H]3[C@@H]2c2c(c4ccccc4[nH]c2=O)OC3(C)C)cc1OC

pEC50 [2]: 5.60
Intrinsic activity [3]: 0.69
Structure (SMILES): COc1cc([C@H]2[C@H]3c4c(c5ccccc5n(C)c4=O)OC(C)(C)[C@H]3[C@@H]2C2CCCC2)cc(OC)c1OC

pEC50 [2]: 5.41
Intrinsic activity [3]: 0.19
Structure (SMILES): CCOc1ccc([C@H]2[C@H]3c4c(c5ccccc5[nH]c4=O)OC(C)(C)[C@H]3[C@@H]2C(C)C)cc1OC

pEC50 [2]: 6.10
Intrinsic activity [3]: 0.88
Structure (SMILES): COc1ccc([C@H]2[C@H]3c4c(c5ccccc5[nH]c4=O)OC(C)(C)[C@H]3[C@@H]2C2CC2)cc1OCCCO

pEC50 [2]: 6.20
Intrinsic activity [3]: 0.82
Structure (SMILES): COc1cc([C@H]2[C@H]3c4c(c5ccccc5[nH]c4=O)OC(C)(C)[C@H]3[C@@H]2C2CC2)cc(OC)c1OC

pEC50 [2]: 5.51
Intrinsic activity [3]: 0.53
Structure (SMILES): COc1ccc([C@H]2[C@H]3c4c(c5ccccc5n(C)c4=O)OC(C)(C)[C@H]3[C@@H]2C(C)C)cc1Cl

pEC50 [2]: 5.70
Intrinsic activity [3]: 0.61
Structure (SMILES): CC[C@@H]1[C@@H](c2ccc(OC)c(OC)c2)[C@H]2c3c(c4ccccc4n(C)c3=O)OC(C)(C)[C@@H]12

pEC50 [2]: 6.10
Intrinsic activity [3]: 1.18
Structure (SMILES): COc1cc([C@H]2[C@H]3c4c(c5ccccc5[nH]c4=O)OC(C)(C)[C@H]3[C@@H]2C(C)C)cc(OC)c1OC

pEC50 [2]: 6.10
Intrinsic activity [3]: 0.81
Structure (SMILES): COc1cc([C@H]2[C@H]3c4c(c5ccccc5n(C)c4=O)OC(C)(C)[C@H]3[C@@H]2C2CC2)cc(OC)c1OC

pEC50 [2]: 6.30
Intrinsic activity [3]: 0.46
Structure (SMILES): COc1ccc([C@H]2[C@H]3c4c(c5ccccc5[nH]c4=O)OC(C)(C)[C@H]3[C@@H]2C(C)C)cc1OCCO

pEC50 [2]: 5.92
Intrinsic activity [3]: 1.01
Structure (SMILES): CC[C@@H]1[C@@H](c2ccc(OC)c(OC)c2)[C@H]2c3c(c4ccccc4[nH]c3=O)OC(C)(C)[C@@H]12

pEC50 [2]: 5.70
Intrinsic activity [3]: 0.69
Structure (SMILES): CCCC[C@@H]1[C@@H](c2cc(OC)c(OC)c(OC)c2)[C@H]2c3c(c4ccccc4[nH]c3=O)OC(C)(C)[C@@H]12

pEC50 [2]: 5.51
Intrinsic activity [3]: 0.44
Structure (SMILES): COc1ccc([C@@H]2[C@@H](C)[C@H]3[C@@H]2c2c(c4ccccc4[nH]c2=O)OC3(C)C)c(Cl)c1OC

pEC50 [2]: 5.51
Intrinsic activity [3]: 0.7
Structure (SMILES): CCC[C@]1(c2cc(OC)cc(OC)c2)O[C@H]2c3c(c4ccccc4[nH]c3=O)OC(C)(C)[C@H]2O1

pEC50 [2]: 6.00
Intrinsic activity [3]: 0.9
Structure (SMILES): COc1ccc([C@H]2[C@H]3c4c(c5ccccc5[nH]c4=O)OC(C)(C)[C@H]3[C@@H]2C(C)C)cc1OC

pEC50 [2]: 6.20
Intrinsic activity [3]: 0.63
Structure (SMILES): COc1cc([C@H]2[C@H]3c4c(c5ccccc5[nH]c4=O)OC(C)(C)[C@H]3[C@@H]2C2CCCC2)cc(OC)c1OC

pEC50 [2]: 6.41
Intrinsic activity [3]: 0.9
Structure (SMILES): COc1ccc([C@H]2[C@H]3c4c(c5ccccc5[nH]c4=O)OC(C)(C)[C@H]3[C@@H]2C2CCCC2)cc1OC

pEC50 [2]: 6.20
Intrinsic activity [3]: 0.75
Structure (SMILES): COc1ccc([C@H]2[C@H]3c4c(c5ccccc5[nH]c4=O)OC(C)(C)[C@H]3[C@@H]2C2CC2)cc1OC

pEC50 [2]: 6.10
Intrinsic activity [3]: 1.05
Structure (SMILES): CC[C@@H]1[C@@H](c2cc(OC)c(OC)c(OC)c2)[C@H]2c3c(c4ccccc4[nH]c3=O)OC(C)(C)[C@@H]12

pEC50 [2]: 5.51
Intrinsic activity [3]: 0.31
Structure (SMILES): COc1ccc([C@H]2[C@H]3c4c(c5ccccc5n(C)c4=O)OC(C)(C)[C@H]3[C@@H]2C(C)C)cc1OC(C)=O

pEC50 [2]: 5.51
Intrinsic activity [3]: 0.46
Structure (SMILES): COc1cc(OC)cc([C@@H]2[C@@H](C)[C@H]3[C@@H]2c2c(c4ccccc4[nH]c2=O)OC3(C)C)c1

pEC50 [2]: 5.70
Intrinsic activity [3]: 0.47
Structure (SMILES): COc1ccc([C@H]2[C@H]3c4c(c5ccccc5[nH]c4=O)OC(C)(C)[C@H]3[C@@H]2C(C)C)cc1Cl

pEC50 [2]: 5.41
Intrinsic activity [3]: 0.28
Structure (SMILES): COc1ccc([C@@H]2[C@@H](C)[C@H]3[C@@H]2c2c(c4ccccc4[nH]c2=O)OC3(C)C)cc1Br

pEC50 [2]: 5.51
Intrinsic activity [3]: 0.29
Structure (SMILES): CC[C@@H]1[C@@H](c2ccc(OC)c(OC)c2)[C@H]2c3c(c4cc(C)ccc4n(C)c3=O)OC(C)(C)[C@@H]12

pEC50 [2]: 5.70
Intrinsic activity [3]: 0.2
Structure (SMILES): COc1ccc([C@H]2[C@H]3c4c(c5ccccc5[nH]c4=O)OC(C)(C)[C@H]3[C@@H]2C(C)C)cc1CCl
